What was measured:
[1] = Absorption/emission maxima and fluorescence quantum yield of free ligand in PBS; format: physicochemical; conditions: free ligand in PBS
α-syn fibrils = α-syn fibrils (Homo sapiens, UniProt P37840); test: α-Synuclein fibril/ligand saturation binding assay
[2] = Kd α-syn, Table 1, synthetic α-syn fibrils 2.5 μM, 1 hour, mean ± SD (n = 3)
[3] = Kd α-syn (reported as no binding), α-syn fibrils, saturation binding

| Compound | Absmax [1] | Emmax [1] | Kd (α-syn fibrils; [2]) | Kd (α-syn fibrils; [3]) |
| --- | --- | --- | --- | --- |
| O=C1C(=Cc2coc3ccc(Br)cc3c2=O)C(=O)c2ccccc21 [compound 54, 2-((6-Bromo-4-oxo-4H-chromen-3-yl)methylene)-1H-indene-1,3(2H)-dione] | 336 | 406 | > 2000 nM | – |
| CN(C)c1ncc(-c2ccc(/C=C3/CCc4ccccc4C3=O)s2)cn1 [compound 51, (Z)-2-((5-(2-(Dimethylamino)pyrimidin-5-yl)thiophen-2-yl)methylene)-3,4-dihydronaphthalen-1(2H)-one] | 442 | 613 | 107 ± 7.5 nM | – |
| O=C1/C(=C/C=C/c2ccc(Br)cc2)Cc2ccc(O)cc21 [compound 11, (E)-2-((E)-3-(4-Bromophenyl)allylidene)-6-hydroxy-2,3-dihydro-1H-inden-1-one] | 335 | 429 | > 2000 nM | ≥ 2000 nM |
| O=C1/C(=C/C=C/c2ccc(Br)cc2)Cc2ccccc21 [compound 7, (E)-2-((E)-3-(4-Bromophenyl)allylidene)-2,3-dihydro-1H-inden-1-one] | 332 | 430 | > 2000 nM | ≥ 2000 nM |
| CN(C)c1ccc(C=CC=C2C(=O)Oc3ccccc3C2=O)cc1 [compound 26, 3-(3-(4-(Dimethylamino)phenyl)allylidene)chromane-2,4-dione] | 440 | 657 | 119 ± 21.1 nM | – |
| COc1cc(C=CC=C2C(=O)Oc3ccccc3C2=O)ccc1O [compound 25, 3-(3-(4-Hydroxy-3-methoxyphenyl)allylidene)chromane-2,4-dione] | 490 | 621 | 116.3 ± 0.7 nM | – |
| N#Cc1ccc(-c2ccc(/C=C/C=C3\Cc4ccc(O)cc4C3=O)cc2)s1 [compound 33, 5-(4-((E)-3-((E)-6-Hydroxy-1-oxo-1,3-dihydro-2H-inden-2-ylidene)prop-1-en-1-yl)phenyl)thiophene-2-carbonitrile] | 398 | 565 | – | – |
| CN(C)c1ncc(-c2ccc(/C=C3/Cc4ccc(O)cc4C3=O)s2)cn1 [compound 43, (Z)-2-((5-(2-(Dimethylamino)pyrimidin-5-yl)thiophen-2-yl)methylene)-6-hydroxy-2,3-dihydro-1H-inden-1-one] | 386 | 572 | 236 ± 10.4 nM | – |
| 3-(3-(4-(Dimethylamino)phenyl)allylidene)chromane-2,4-dione [compound 27] | 442 | 661 | – | – |
| CN(C)c1ccc(C=CC=C2C(=O)Oc3ccc(Br)cc3C2=O)cc1 [compound 28, 6-Bromo-3-(3-(4-(dimethylamino)phenyl)allylidene)chromane-2,4-dione] | 405 | – | > 2000 nM | ≥ 2000 nM |
| O=C1C(=C/C=C/c2ccccc2)C(=O)c2ccccc21 [compound 16, (E)-2-(3-Phenylallylidene)-1H-indene-1,3(2H)-dione] | 331 | 421 | > 2000 nM | – |
| O=C1C(=Cc2cc(-c3ccc(Br)cc3)no2)C(=O)c2ccccc21 [compound 56, 2-((3-(4-Bromophenyl)isoxazol-5-yl)methylene)-1H-indene-1,3(2H)-dione] | 321 | 409 | > 2000 nM | ≥ 2000 nM |
| O=C1C(=C/C=C/c2ccc(Br)cc2)C(=O)c2ccccc21 [compound 17, (E)-2-(3-(4-Bromophenyl)allylidene)-1H-indene-1,3(2H)-dione] | 328 | 419 | > 2000 nM | – |
| Nc1cccc(-c2ccc(/C=C3/Cc4ccccc4C3=O)s2)c1 [compound 38, (Z)-2-((5-(3-Aminophenyl)thiophen-2-yl)methylene)-2,3-dihydro-1H-inden-1-one] | 408 | 563 | 160 ± 10 nM | – |
| O=C1/C(=C/C=C/c2ccc([N+](=O)[O-])cc2)Cc2ccccc21 [compound 10, (E)-2-((E)-3-(4-Nitrophenyl)allylidene)-2,3-dihydro-1H-inden-1-one] | 336 | 438 | – | – |
| O=C1/C(=C\c2cc(-c3cccnc3)cs2)Cc2ccccc21 [compound 47, (Z)-2-((4-(Pyridin-3-yl)thiophen-2-yl)methylene)-2,3-dihydro-1H-inden-1-one] | 340 | 404 | 333 ± 28.3 nM | – |
| O=C1C(=C/C=C/c2ccc(F)cc2)C(=O)c2ccccc21 [compound 18, (E)-2-(3-(4-Fluorophenyl)allylidene)-1H-indene-1,3(2H)-dione] | 332 | 421 | > 2000 nM | – |
| Cc1ccc2occ(C=C3C(=O)c4ccccc4C3=O)c(=O)c2c1 [compound 53, 2-((6-Methyl-4-oxo-4H-chromen-3-yl)methylene)-1H-indene-1,3(2H)-dione] | 428 | 471 | > 2000 nM | – |

| Compound | Absmax [1] | Emmax [1] | Kd (α-syn fibrils; [2]) | Kd (α-syn fibrils; [3]) |
| --- | --- | --- | --- | --- |
| CN(C)c1ncc(-c2ccc(/C=C3/Cc4ccccc4C3=O)s2)cn1 [compound 41, (Z)-2-((5-(2-(Dimethylamino)pyrimidin-5-yl)thiophen-2-yl)methylene)-2,3-dihydro-1H-inden-1-one] | 410 | 567 | 272 ± 29.9 nM | – |
| CN(C)c1ccc(/C=C/C=C2\Cc3ccc(O)cc3C2=O)cc1 [compound 12, (E)-2-((E)-3-(4-(Dimethylamino)phenyl)allylidene)-6-hydroxy-2,3-dihydro-1H-inden-1-one] | 406 | 614 | 203 ± 15.9 nM | – |
| O=C1/C(=C/C=C/c2ccc([N+](=O)[O-])cc2)Cc2ccc(O)cc21 [compound 13, (E)-6-Hydroxy-2-((E)-3-(4-nitrophenyl)allylidene)-2,3-dihydro-1H-inden-1-one] | 356 | 443 | 726 ± 23.6 nM | – |
| CN(C)c1ccc(-c2ccc(/C=C/C=C3\Cc4ccc(O)cc4C3=O)cc2)cc1 [compound 30, (E)-2-((E)-3-(4'-(Dimethylamino)-[1,1'-biphenyl]-4-yl)allylidene)-6-hydroxy-2,3-dihydro-1H-inden-1-one] | 414 | 597 | – | – |
| O=C1/C(=C\c2cc(-c3ccc(CO)cc3)cs2)Cc2ccccc21 [compound 46, (Z)-2-((4-(4-(Hydroxymethyl)phenyl)thiophen-2-yl)methylene)-2,3-dihydro-1H-inden-1-one] | 368 | 454 | 153 ± 7.9 nM | – |
| O=C1/C(=C/C=C/c2ccc([N+](=O)[O-])cc2)Cc2cc(F)cc(F)c21 [compound 15, (E)-5,7-Difluoro-2-((E)-3-(4-nitrophenyl)allylidene)-2,3-dihydro-1H-inden-1-one] | 330 | 439 | 398.1 ± 3.9 nM | – |
| O=C1C(=Cc2cc3ccccc3[nH]2)C(=O)c2ccccc21 [compound 55, 2-((1H-Indol-2-yl)methylene)-1H-indene-1,3(2H)-dione] | 384 | 519 | 1180 ± 88 nM | – |
| O=C1C(=CC2=C(Cl)c3ccccc3CC2)C(=O)c2ccccc21 [compound 52, 2-((1-Chloro-3,4-dihydronaphthalen-2-yl)methylene)-1H-indene-1,3(2H)-dione] | 354 | 406 | > 2000 nM | – |
| CN(C)c1ccc(/C=C/C=C2C(=O)c3ccccc3C2=O)cc1 [compound 19, (E)-2-(3-(4-(Dimethylamino)phenyl)allylidene)-1H-indene-1,3(2H)-dione] | 416 | – | – | – |
| CN(C)c1ccc(-c2ccc(/C=C3/Cc4ccccc4C3=O)s2)cc1 [compound 40, (Z)-2-((5-(4-(Dimethylamino)phenyl)thiophen-2-yl)methylene)-2,3-dihydro-1H-inden-1-one] | 413 | 597 | 160 ± 7.1 nM | – |
| COc1cc(/C=C/C=C2\Cc3cc(F)cc(F)c3C2=O)ccc1O [compound 14, (E)-5,7-Difluoro-2-((E)-3-(4-hydroxy-3-methoxyphenyl)allylidene)-2,3-dihydro-1H-inden-1-one] | 338 | 545 | 241 ± 47.9 nM | – |
| O=C1/C(=C\c2ccc(-c3ccc(CO)cc3)s2)Cc2ccc(O)cc21 [compound 44, (Z)-6-Hydroxy-2-((5-(4-(hydroxymethyl)phenyl)thiophen-2-yl)methylene)-2,3-dihydro-1H-inden-1-one] | 412 | 545 | 134 ± 19.2 nM | – |
| O=C(O)c1ccc(-c2ccc(/C=C/C=C3C(=O)c4ccccc4C3=O)cc2)cc1 [compound 34, (E)-4'-(3-(1,3-Dioxo-1,3-dihydro-2H-inden-2-ylidene)prop-1-en-1-yl)-[1,1'-biphenyl]-4-carboxylic acid] | 358 | 409 | 1430 ± 46.8 nM | – |
| COc1cc(-c2ccc(/C=C3/CCc4ccccc4C3=O)s2)ccc1O [compound 50, (Z)-2-((5-(4-Hydroxy-3-methoxyphenyl)thiophen-2-yl)methylene)-3,4-dihydronaphthalen-1(2H)-one] | 417 | 596 | 111 ± 7.8 nM | – |
| O=C1C(=C/C=C/c2ccc([N+](=O)[O-])cc2)C(=O)c2ccccc21 [compound 22, (E)-2-(3-(4-Nitrophenyl)allylidene)-1H-indene-1,3(2H)-dione] | 336 | 460 | 1330 ± 182 nM | – |
| Cc1ccc2occ(/C=C3/Cc4ccc(O)cc4C3=O)c(=O)c2c1 [compound 57, (Z)-3-((6-Hydroxy-1-oxo-1,3-dihydro-2H-inden-2-ylidene)methyl)-6-methyl-4H-chromen-4-one] | 326 | 388 | 656 ± 88 nM | – |
| COc1cc(/C=C/C=C2C(=O)c3ccccc3C2=O)cc(OC)c1O [compound 21, (E)-2-(3-(4-Hydroxy-3,5-dimethoxyphenyl)allylidene)-1H-indene-1,3(2H)-dione] | 434 | 450 | 268 ± 11.7 nM | – |

Reference: paper PMC8770581 (ChemMedChem, 2021)
